In ChEMBL document CHEMBL1201862, “PubChem BioAssay data set” (2004):
Active and inactive are the calls of the source. For most assays here, no stated cut-off is given here; in the data, actives have a measured EC50 and inactives only a lower limit.

Experiments:
[1] = biological target: T1, Bcl-2-like protein 10 (Homo sapiens, UniProt Q9HD36); assay: Biochemical TR3 FP assay of Bcl-B inhibitor potency, EC50 (AID 1243); type: functional
T1 sequence (Q9HD36 whole entry): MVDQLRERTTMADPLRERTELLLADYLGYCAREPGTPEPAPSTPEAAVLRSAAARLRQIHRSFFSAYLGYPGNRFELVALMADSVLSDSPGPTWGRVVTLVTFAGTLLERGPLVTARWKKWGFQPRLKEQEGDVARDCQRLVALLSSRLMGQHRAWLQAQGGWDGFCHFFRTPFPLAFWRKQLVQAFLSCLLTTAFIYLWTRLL

[2] = Luminescence Cell-Based Dose Response to Identify Activators of 5'UTR Stem-Loop Driven Prion Protein mRNA Translation in H4-C Neuroglioblastoma Cells. [Related pubchem assays: 1829 (Project Summary), 1814 (Primary HTS)]; type: functional
[3] = biological target: Protein-tyrosine kinase 2-beta (Homo sapiens, UniProt Q14289);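 further: potency of inhibitors of PYK2 kinase phosphorylation of poly-GT substrate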
Sequence of Protein-tyrosine kinase 2-beta (Q14289 whole entry): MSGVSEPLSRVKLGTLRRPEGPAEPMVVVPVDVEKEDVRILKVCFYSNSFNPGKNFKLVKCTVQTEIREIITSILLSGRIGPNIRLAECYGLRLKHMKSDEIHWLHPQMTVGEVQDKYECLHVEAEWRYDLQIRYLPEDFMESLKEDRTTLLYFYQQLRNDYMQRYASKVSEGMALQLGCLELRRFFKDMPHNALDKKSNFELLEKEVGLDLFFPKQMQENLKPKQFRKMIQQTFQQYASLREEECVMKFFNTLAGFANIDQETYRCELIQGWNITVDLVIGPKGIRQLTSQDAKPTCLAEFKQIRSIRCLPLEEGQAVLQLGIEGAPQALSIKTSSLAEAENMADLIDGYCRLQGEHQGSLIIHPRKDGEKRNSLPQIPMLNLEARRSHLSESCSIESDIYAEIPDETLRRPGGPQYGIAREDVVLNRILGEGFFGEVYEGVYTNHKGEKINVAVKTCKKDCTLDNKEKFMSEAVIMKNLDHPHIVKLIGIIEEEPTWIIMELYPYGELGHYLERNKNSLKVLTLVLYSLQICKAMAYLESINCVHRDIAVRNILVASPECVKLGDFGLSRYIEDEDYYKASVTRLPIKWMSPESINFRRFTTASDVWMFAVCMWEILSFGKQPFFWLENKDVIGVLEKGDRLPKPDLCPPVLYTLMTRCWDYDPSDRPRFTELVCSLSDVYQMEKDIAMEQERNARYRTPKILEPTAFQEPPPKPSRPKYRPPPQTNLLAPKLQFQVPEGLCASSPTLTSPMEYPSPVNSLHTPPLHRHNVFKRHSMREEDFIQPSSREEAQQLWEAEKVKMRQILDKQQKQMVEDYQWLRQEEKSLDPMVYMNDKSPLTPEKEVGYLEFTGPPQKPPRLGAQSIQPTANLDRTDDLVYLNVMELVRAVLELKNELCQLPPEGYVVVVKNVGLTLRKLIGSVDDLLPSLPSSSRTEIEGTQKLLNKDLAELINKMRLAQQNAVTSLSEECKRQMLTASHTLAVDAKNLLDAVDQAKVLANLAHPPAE

[4] = biological target: Estrogen receptor beta (Homo sapiens, UniProt Q92731);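 further: recombinant ER-beta bound to coactivator SRC1 peptide in presence of estradiol agonist; inhibitors block coactivator peptide binding and lower the FRET signal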
Sequence of Estrogen receptor beta (Q92731 whole entry): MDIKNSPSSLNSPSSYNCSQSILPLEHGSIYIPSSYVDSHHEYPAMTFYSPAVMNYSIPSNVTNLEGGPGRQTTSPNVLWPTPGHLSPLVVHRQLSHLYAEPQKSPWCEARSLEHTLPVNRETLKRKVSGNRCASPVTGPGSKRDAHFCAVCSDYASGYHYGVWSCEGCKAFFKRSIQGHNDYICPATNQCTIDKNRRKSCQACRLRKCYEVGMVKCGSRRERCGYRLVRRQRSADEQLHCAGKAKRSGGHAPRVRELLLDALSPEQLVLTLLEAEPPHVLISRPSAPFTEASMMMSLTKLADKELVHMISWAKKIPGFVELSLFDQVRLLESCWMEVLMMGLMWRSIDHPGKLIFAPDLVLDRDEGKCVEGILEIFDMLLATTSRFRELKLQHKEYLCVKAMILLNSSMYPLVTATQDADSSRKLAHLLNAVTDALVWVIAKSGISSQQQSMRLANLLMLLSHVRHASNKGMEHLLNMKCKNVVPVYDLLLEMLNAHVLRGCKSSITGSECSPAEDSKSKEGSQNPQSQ

[5] = biological target: T2, Zinc finger protein mex-5 (Caenorhabditis elegans, UniProt Q9XUB2); assay: MEX-5/TCR-2 RNA interaction inhibitors, dose response, biochemical, C. elegans, fluorescence polarization (AID 1960)
T2 sequence (Q9XUB2 whole entry): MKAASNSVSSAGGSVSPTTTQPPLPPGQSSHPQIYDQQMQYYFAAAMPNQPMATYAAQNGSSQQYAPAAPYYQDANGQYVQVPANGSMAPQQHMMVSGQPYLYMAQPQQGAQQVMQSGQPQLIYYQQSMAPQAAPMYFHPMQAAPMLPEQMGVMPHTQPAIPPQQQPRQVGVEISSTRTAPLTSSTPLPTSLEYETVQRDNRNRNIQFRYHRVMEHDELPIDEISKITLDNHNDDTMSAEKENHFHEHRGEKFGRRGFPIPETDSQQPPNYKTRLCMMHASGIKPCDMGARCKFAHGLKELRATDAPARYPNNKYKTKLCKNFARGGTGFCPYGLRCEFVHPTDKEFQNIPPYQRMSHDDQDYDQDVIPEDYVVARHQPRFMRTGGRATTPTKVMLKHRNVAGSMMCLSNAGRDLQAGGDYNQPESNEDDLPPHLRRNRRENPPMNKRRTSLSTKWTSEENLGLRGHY

[6] = test system: H4; assay: Luminescence Cell-Based Dose Response HTS to Identify Activators of 5'UTR Stem-Loop Driven Prion Protein mRNA Translation in H4 Neuroglioblastoma Cells. [Related pubchem assays: 1829 (Project Summary), 1814 (Primary HTS)]; type: functional; settings: Homo sapiens
[7] = Luminescence Cell-Based Dose Confirmation to Identify Activators of 5'UTR Stem-Loop Driven Alpha-Synuclein mRNA Translation in H4 Neuroglioblastoma Cells. [Related pubchem assays: 1829 (Project Summary), 1814 (Primary HTS)]; type: functional
[8] = Luminescence Cell-Based Dose Response to Identify Activators of Luciferase Translation or Activity in H4-C Neuroglioblastoma Cells. [Related pubchem assays: 1829 (Project Summary), 1814 (Primary HTS)]; type: functional
[9] = biological target: T3, RNA-binding protein pos-1 (Caenorhabditis elegans, UniProt G5EF15); assay: inhibitors of POS-1/mex-3 RNA binding, dose response, biochemical, fluorescence polarization (AID 1964);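 further: purified POS-1 fused to maltose binding protein made in E. coli; potency of compounds blocking POS-1 binding to fluorescent RNA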
T3 sequence (G5EF15 whole entry): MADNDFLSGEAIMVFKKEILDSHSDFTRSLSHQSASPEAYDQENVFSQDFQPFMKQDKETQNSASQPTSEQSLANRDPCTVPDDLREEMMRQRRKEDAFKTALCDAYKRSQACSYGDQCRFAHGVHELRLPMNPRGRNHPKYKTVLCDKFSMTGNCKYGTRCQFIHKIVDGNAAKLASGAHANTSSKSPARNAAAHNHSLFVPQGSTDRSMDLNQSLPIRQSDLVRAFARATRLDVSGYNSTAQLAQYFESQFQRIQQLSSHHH

[10] = Luminescence Cell-Based Dose Response HTS to Identify Activators of Luciferase Translation or Activity in H4 […] Cells. [Related pubchem assays: 1829 (Project Summary), 1814 (Primary HTS)]; type: functional
[11] = biological target: Neuropeptide Y receptor type 2 (Homo sapiens, UniProt P49146); assay: NPY-Y2 antagonist potency, selectivity check, dose response, counter-screen for NPY-Y1 antagonist project, cell-based (AID 1278); type: functional
Sequence of Neuropeptide Y receptor type 2 (P49146 whole entry): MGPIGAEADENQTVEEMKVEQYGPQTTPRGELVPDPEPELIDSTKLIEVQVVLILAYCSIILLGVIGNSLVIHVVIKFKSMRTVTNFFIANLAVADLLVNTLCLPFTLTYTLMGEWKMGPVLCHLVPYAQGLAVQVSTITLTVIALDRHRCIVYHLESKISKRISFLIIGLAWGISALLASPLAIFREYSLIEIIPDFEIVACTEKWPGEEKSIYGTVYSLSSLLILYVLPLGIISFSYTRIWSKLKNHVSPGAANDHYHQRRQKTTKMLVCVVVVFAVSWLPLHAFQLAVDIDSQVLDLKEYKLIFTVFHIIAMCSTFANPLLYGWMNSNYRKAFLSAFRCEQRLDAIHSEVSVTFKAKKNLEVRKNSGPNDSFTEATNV

[12] = biological target: Neuropeptide Y receptor type 1 (Homo sapiens, UniProt P25929); assay: NPY-Y1 receptor antagonist potency, dose response, cell-based (AID 1277); type: functional
Sequence of Neuropeptide Y receptor type 1 (P25929 whole entry): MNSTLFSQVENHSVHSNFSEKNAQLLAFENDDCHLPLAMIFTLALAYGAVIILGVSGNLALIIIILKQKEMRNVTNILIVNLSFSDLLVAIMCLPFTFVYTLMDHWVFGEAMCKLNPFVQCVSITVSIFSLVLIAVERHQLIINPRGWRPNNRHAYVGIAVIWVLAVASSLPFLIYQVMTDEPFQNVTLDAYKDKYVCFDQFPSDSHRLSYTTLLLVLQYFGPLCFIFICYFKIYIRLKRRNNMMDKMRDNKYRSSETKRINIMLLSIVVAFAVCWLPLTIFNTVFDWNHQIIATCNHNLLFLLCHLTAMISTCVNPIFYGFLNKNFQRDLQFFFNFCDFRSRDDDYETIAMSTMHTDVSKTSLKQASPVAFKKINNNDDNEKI

[13] = test system: HeLa; assay: Cytotoxicity counterscreen assay for transcriptional activators of heat shock protein 70 (Hsp70). [Related pubchem assays: 1203, 1252 ]; type: functional; settings: Homo sapiens;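 further: cells exposed to compound for 16 hours before readout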
[14] = inhibitors of firefly luciferase expression or activity, dose response, H4 neuroglioma cells, luminescence (AID 1990); type: functional, cell-based
[15] = test system: Streptococcus; assay: Group A Streptococcus viability loss, dose response, counter-screen for streptokinase expression inhibitor project, luminescence, BacTiterGlo (AID 1915); type: functional, organism-based;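 further: potency for reduction of bacterial viability or growth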
[16] = test system: Streptococcus sp. 'group A'; assay: growth inhibition of control SK(-) GAS strain, dose response, counter-screen for streptokinase expression inhibitor project, luminescence, kanamycin, BacTiterGlo, confirmation (AID 1900); type: functional, organism-based
[17] = biological target: Mothers against decapentaplegic homolog 3 (Homo sapiens, UniProt P84022); assay: SMAD3 transcription factor inhibitors, dose response (AID 715); type: functional
Sequence of Mothers against decapentaplegic homolog 3 (P84022 whole entry): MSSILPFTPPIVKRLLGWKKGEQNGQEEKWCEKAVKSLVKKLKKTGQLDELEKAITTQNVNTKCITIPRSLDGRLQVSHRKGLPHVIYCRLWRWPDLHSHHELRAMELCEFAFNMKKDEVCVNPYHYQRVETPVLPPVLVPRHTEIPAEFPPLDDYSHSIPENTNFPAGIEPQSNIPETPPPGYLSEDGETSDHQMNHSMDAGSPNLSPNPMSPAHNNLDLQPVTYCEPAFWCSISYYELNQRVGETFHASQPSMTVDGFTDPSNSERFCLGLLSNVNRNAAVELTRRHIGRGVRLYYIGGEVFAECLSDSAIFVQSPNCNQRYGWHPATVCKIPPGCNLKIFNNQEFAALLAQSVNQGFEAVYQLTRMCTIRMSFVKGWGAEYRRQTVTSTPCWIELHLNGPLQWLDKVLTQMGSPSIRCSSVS

[18] = biological target: T4, Streptokinase A (Streptococcus pyogenes serotype M1, UniProt P10520); assay: S. pyogenes streptokinase expression inhibitors, potency, dose response, plasminogen activation absorbance, OD405 (AID 1914); type: functional, Streptococcus pyogenes M1 GAS;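 further: secreted streptokinase activity via plasminogen activation per viability signal from cell pellet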
T4 sequence (P10520 whole entry): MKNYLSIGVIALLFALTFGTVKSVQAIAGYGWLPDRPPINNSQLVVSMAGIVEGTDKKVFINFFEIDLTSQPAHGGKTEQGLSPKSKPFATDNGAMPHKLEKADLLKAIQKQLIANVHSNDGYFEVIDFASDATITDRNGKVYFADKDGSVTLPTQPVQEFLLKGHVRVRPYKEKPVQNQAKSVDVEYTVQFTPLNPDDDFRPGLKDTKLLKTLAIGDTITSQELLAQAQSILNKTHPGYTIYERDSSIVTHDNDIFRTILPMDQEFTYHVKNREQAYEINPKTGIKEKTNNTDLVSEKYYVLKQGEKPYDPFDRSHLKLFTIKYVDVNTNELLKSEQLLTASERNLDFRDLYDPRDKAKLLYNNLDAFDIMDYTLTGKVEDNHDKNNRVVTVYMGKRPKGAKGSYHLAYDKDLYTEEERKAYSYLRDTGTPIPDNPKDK

[19] = Luminescence Cell-Based Dose Response HTS to Identify Inhibitors of 5'UTR Stem-Loop Driven Prion Protein mRNA Translation in H4 Neuroglioblastoma Cells. [Related pubchem assays: 1827 (Project Summary), 1813 (Primary HTS)]; type: functional
[20] = test system: BJ; assay: cells; type: functional, cell-based; settings: Homo sapiens
[21] = inhibitors of SNCA 5'UTR-driven reporter translation, confirmation, H4 neuroglioma cells, luminescence (AID 1988); type: functional, cell-based
[22] = test system: BJ; assay: cytotoxicity toward Ras-transformed BJeLR fibroblasts, dose response, cell-based, alamar blue fluorescence, cherrypicked samples (AID 2631); type: functional; settings: Homo sapiens;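 further: confirmatory dose-response assay in RAS-dependent BJ fibroblasts engineered with TERT, LT and ST, with cytotoxicity read by fluorescence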
[23] = biological target: T5, Estrogen receptor (Homo sapiens, UniProt P03372);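 further: potency for inhibiting coactivator peptide recruitment to the receptor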
T5 sequence (P03372 whole entry): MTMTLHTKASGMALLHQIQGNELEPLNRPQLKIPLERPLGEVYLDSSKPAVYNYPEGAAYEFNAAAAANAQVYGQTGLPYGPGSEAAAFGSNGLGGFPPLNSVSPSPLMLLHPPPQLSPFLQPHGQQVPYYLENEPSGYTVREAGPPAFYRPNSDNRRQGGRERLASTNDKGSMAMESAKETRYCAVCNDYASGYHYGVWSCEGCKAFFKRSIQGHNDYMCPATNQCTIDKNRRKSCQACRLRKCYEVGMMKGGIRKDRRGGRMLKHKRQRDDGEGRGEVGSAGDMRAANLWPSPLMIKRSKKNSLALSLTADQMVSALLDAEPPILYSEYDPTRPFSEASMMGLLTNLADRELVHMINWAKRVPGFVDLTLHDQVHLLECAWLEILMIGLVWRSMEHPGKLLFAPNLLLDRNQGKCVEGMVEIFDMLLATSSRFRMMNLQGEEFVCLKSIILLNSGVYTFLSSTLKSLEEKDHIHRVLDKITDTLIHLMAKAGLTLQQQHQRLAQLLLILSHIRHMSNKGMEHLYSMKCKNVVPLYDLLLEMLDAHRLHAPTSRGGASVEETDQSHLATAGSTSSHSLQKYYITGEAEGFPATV

[24] = cytotoxicity toward DRD oncogenic fibroblasts, dose response, cell-based, non-viral oncogenic, luminescence (AID 1934); type: functional; settings: Homo sapiens
[25] = test system: BJ; assay: cytotoxicity toward BJ-TERT-LT-ST fibroblasts, dose response, cell-based, RAS-independent, luminescence (AID 1935); type: functional; settings: Homo sapiens;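 further: BJ fibroblasts immortalized with TERT plus LT and ST oncogenes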

SMILES: O=C1C=CC(=O)C(/C(=C/NCc2ccccc2)[N+](=O)[O-])=C1
- EC50 [1]: 5.7 µM (active)

SMILES: CCc1c(C)nc(SCC(=O)c2cccs2)c(C#N)c1C
- EC50 [2]: 0.332 µM (active)
- IC50 [3]: > 69.5 µM (not active)
- IC50 [4]: > 50 µM (not active)
- EC50 [5]: 36.7 µM (inconclusive)
- EC50 [6]: 0.149 µM (active)
- EC50 [7]: 0.552 µM (active)
- EC50 [8]: 0.302 µM (active)
- EC50 [9]: 11.5 µM (inconclusive)
- EC50 [10]: < 0.1 µM (inconclusive)

SMILES: Cc1nn(-c2ccccc2)c2sc(C(=O)O)cc12
- IC50 [11]: > 35 µM (not active)
- IC50 [12]: > 35 µM (not active)

SMILES: Cn1c(CCN2CCOCC2)nc2cc(NC(=O)COc3ccc(Cl)cc3)ccc21
- CC50 [13]: > 99 µM (not active)

SMILES: CCOC(=O)c1c2c(n(C)c1COC)C(=O)C(=O)c1ccc(Br)cc1-2
- EC50 [14]: 4.87 µM (active)
- EC50 [15]: 24.3 µM (active)
- EC50 [16]: 1.13 µM (active)
- IC50 [17]: 0.771 µM (active)
- EC50 [18]: > 150 µM (not active)
- EC50 [19]: 5.16 µM (active)
- EC50 [20]: 3.08 µM (active)
- EC50 [21]: 1.44 µM (active)
- EC50 [22]: 0.562 µM (active)
- IC50 [23]: 8.87 µM (active)
- EC50 [24]: 2.36 µM (active)
- EC50 [25]: 1.08 µM (inconclusive)
